In patent publication US20250032426A1, “PHARMACEUTICAL COMPOSITIONS” (SpecNova LLC, priority 2021, published 2025):

Molecular target: Human Dopamine Transporter (DAT) (Homo sapiens, UniProt Q01959)
Test: Human Dopamine Transporter (DAT) Binding (Antagonist Radioligand) Assay
Settings: for % of Control Specific Binding (1st Test) / % of Control Specific Binding (2nd Test) / % Inhibition of Control Specific Binding / % of Control Specific Binding (mean of two tests): [3H]BTCP 4 nM radioligand; for % Inhibition of Control Specific Binding: cell membrane homogenates, 120 min at 4° C., test concentration not given; for level of inhibition in the dopamine transporter inhibitory assay (in words): qualitative statement in the description
Experimental: Human Dopamine Transporter (DAT) Binding (Antagonist Radioligand) Assay
Nonspecific binding is determined in the presence of 10 μM BTCP. Following incubation, the samples are filtered rapidly under vacuum through glass fiber filters (GF/B, Packard) presoaked with 0.3% PEI and rinsed several times with ice-cold 50 mM Tris-HCl using a 96-sample cell harvester (Unifilter, Packard). The filters are dried then counted for radioactivity in a scintillation counter (Topcount, Packard) using a scintillation cocktail (Microscint 0, Packard). The results are expressed as a percent inhibition of the control radioligand specific binding.

Sequence of Human Dopamine Transporter (DAT) (Q01959 whole entry): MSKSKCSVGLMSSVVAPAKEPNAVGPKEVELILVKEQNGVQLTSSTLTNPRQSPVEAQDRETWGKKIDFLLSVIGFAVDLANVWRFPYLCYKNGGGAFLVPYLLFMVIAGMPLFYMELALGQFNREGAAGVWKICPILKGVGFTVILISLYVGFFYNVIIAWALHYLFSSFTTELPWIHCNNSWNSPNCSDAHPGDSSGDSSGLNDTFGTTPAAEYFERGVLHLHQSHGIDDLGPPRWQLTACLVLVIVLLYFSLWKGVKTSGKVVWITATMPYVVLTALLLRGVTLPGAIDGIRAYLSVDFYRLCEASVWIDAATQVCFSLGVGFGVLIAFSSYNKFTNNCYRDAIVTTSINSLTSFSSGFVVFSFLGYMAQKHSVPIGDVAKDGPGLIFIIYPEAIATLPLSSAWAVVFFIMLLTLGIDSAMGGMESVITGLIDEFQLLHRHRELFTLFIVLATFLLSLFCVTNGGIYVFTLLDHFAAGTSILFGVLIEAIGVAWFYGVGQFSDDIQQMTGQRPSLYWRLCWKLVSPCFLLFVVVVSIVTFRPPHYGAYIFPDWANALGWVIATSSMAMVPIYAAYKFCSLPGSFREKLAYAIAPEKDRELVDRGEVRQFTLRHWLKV

SMILES | % of Control Specific Binding (1st Test) | % of Control Specific Binding (2nd Test) | % Inhibition of Control Specific Binding | % of Control Specific Binding (mean of two tests) | level of inhibition in the dopamine transporter inhibitory assay (in words)
CC(C)=CCc1c(C2CCc3ccc(O)cc3O2)ccc(O)c1O (stereo in doubt) [Kazinol U, 4-[(2S)-7-hydroxy-3,4-dihydro-2H-chromen-2-yl]-3-(3-methylbut-2-enyl) benzene-1,2-diol] | 33.6% | 42.8% | 62% | 38.2% | high level of inhibition
OC[C@@H](O)[C@@H](/C=C/c1ccc(O)cc1)c1ccc(O)cc1 [Agatharesinol, (2S,3S,4E)-3,5-bis(4-hydroxyphenyl)pent-4-ene-1,2-diol] | 4.2% | 5% | 95% | 4.6% | extremely high level of inhibition
OC[C@@H](O)[C@@H](/C=C/c1ccc(O)cc1)c1ccc(O)c(O)c1 [Sequirin C, 4-[(1S,2E)-1-[(1S)-1,2-dihydroxyethyl]-3-(4-hydroxyphenyl)prop-2-en-1-yl]benzene-1,2-diol] | 7.4% | 5.6% | 94% | 6.5% | extremely high level of inhibition
